Consider eleven molecules from ChEMBL document CHEMBL1201862, “PubChem BioAssay data set” (2004).

Common to all, as to test: NCI anticancer screen, dose series, 48 h
Assay [1] relates to A498.
Assay [2] has as its system A549.
The subject of assay [3] is COLO 205.
Assay [4] deals with RPMI-8226.
Assay [5] has as its system IGROV-1.
The subject of assay [6] is HOP-62.
The subject of assay [7] is OVCAR-5.
In assay [8] the test system is SK-MEL-2.
In assay [9] the test system is SF-539.
The subject of assay [10] is SW-620.
Assay [11] concerns SK-MEL-5.
The subject of assay [12] is NCI-H522.
For assay [13], the system named is HCC 2998.
For assay [14], the system named is HT-29.
In assay [15] the test system is UACC-257.
The subject of assay [16] is HOP-92.
Assay [17] relates to CCRF-CEM.
The test system of assay [18] is LOX IMVI.
Assay [19] concerns OVCAR-3.
In assay [20] the test system is HL-60.

Each structure is given as a SMILES string.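 1) Cells in 96-well plates. 2) Compound, 48 h, 5 concentrations. 3) Linear interpolation between surrounding doses. 4) Unreached endpoint = highest concentration. GI50 is the concentration that inhibits growth by half.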 The source made the active and inactive calls. Cut-off read from the data, not from the text of the source: active = GI50 up to about 1.1 µM and inactive = higher. Bounds are passed on as bounds.

`COc1ccc(C2C(N)=NCC2c2ccccn2)cc1` (centres undefined): the GI50 in assay [1], in assay [2], in [3], in [4], in assay [5] and in assay [6] was > 100 µM (inactive) in each case. Also, the GI50 in assay [7], in assay [8], in [9], in [10], in assay [11] and in assay [12] was > 100 µM (inactive) each time. Also, the GI50 in assay [13], in assay [14], in assay [15], in [16], in assay [17] and in assay [18] was > 100 µM (inactive) in each case. Moreover, the GI50 in assay [19] was > 100 µM (inactive).
Turning to `NC(=S)N/N=C1\C(=O)Nc2c(Cl)cc(Cl)cc21`, the GI50 in assay [1] was 32.4 µM (inactive); in assay [2] it was 31.3 µM (inactive); in [3], 20.2 µM (inactive); in assay [5], 22.5 µM (inactive); in assay [6] it was 13 µM (inactive); in assay [20], 12.4 µM (inactive). The GI50 was 81.7 µM (inactive) in [7]; 15.5 µM (inactive) in [8]; 18.1 µM (inactive) in [9]; 30.5 µM (inactive) in assay [10]; 14.4 µM (inactive) in [11]; 34.5 µM (inactive) in [13]. The GI50 in [14] was 18.8 µM (inactive); in [15], 24.2 µM (inactive); in [16], 72.1 µM (inactive); in [17], 23.5 µM (inactive); in assay [18], 18.3 µM (inactive); in assay [19] it was 11.7 µM (inactive).
On to `CC12CC3(C)CC(C)(C1)CC(N=[N+]=[N-])(C2)C3`, for which the GI50 in [1], in [2], in assay [3], in assay [4], in assay [5] and in assay [6] was > 100 µM (inactive) throughout. The GI50 in assay [7], in assay [8], in [9], in [10], in assay [11] and in [12] was > 100 µM (inactive) throughout. Besides, the GI50 in assay [13], in [14], in assay [15], in assay [16], in assay [17] and in [18] was > 100 µM (inactive) each time. Moreover, in assay [19], the GI50 is > 100 µM (inactive).
For the molecule `Cc1[nH]c(=O)[nH]c(=O)c1/C=C/C(=O)NC(CO)C[S+]([O-])C[S+](C)[O-]` (centres undefined), the GI50 in [1] is 21.8 µM (inactive); in [2], 24.4 µM (inactive); in assay [3], 30 µM (inactive); in [4], 34.8 µM (inactive); in assay [5], 12.6 µM (inactive); in assay [6], 16.6 µM (inactive). Moreover, the GI50 in [20] is 16.7 µM (inactive); in assay [7], 135 µM (inactive); in [8], 13.5 µM (inactive); in assay [9] it was 13.9 µM (inactive); in assay [10], 38.6 µM (inactive); in assay [11] it was 18 µM (inactive). Further, the GI50 in [12] was 9.51 µM (inactive); in [13] it was 9.62 µM (inactive); in assay [14], 125 µM (inactive); in assay [15] it was 21.8 µM (inactive); in assay [16], 9.73 µM (inactive); in assay [17] it was 14.6 µM (inactive). The figures for the GI50 in assay [18] and in [19] were 15.5 µM (inactive) and 7.87 µM (inactive), respectively.
Turning to `CN(C)C(=S)/N=c1\ss/c(=N\S(=O)(=O)c2ccccc2)n1-c1ccccc1`, the GI50 in assay [1] was 50.9 µM (inactive); in assay [2] it was 14.1 µM (inactive); in assay [4], 0.344 µM (active); in [5], 38 µM (inactive); in assay [6] it was 22.9 µM (inactive); in [20] it was 4.33 µM (inactive). For the same molecule, the GI50 was > 100 µM (inactive) in assay [7]; 11.5 µM (inactive) in assay [8]; 19.7 µM (inactive) in assay [9]; 9.95 µM (inactive) in [10]; 0.0653 µM (active) in assay [11]; 0.0855 µM (active) in assay [12]. For the same molecule, the GI50 in [13] is 38.8 µM (inactive); in assay [14], 0.0522 µM (active); in assay [15] it was 16.9 µM (inactive); in assay [16], 14.7 µM (inactive); in assay [17], 0.333 µM (active); in [18], 4.06 µM (inactive). Moreover, the GI50 in assay [19] was 6.4 µM (inactive).
For `S=c1sc2cscc2s1`, the GI50 was 71.6 µM (inactive) in assay [1]; 19.5 µM (inactive) in assay [2]; 17.7 µM (inactive) in assay [3]; 47.6 µM (inactive) in assay [4]; 32.2 µM (inactive) in assay [5]; 32.8 µM (inactive) in assay [6]. In addition, the GI50 is 28.1 µM (inactive) in [20]; 69.2 µM (inactive) in [7]; 38 µM (inactive) in [8]; 23 µM (inactive) in [9]; 20.7 µM (inactive) in [10]; 27.9 µM (inactive) in assay [11]. Besides, the GI50 in assay [12] was 19.3 µM (inactive); in [13] it was 18.7 µM (inactive); in [14] it was 44.1 µM (inactive); in assay [15] it was 22.3 µM (inactive); in assay [16], 24.8 µM (inactive); in [17], 22 µM (inactive). Moreover, the GI50 in assay [18] is 39.8 µM (inactive); in [19] it was 19.5 µM (inactive).
Regarding `O=c1cnn(CCOCP(=O)(O)O)c(=O)[nH]1`, the GI50 in assay [1], in assay [2], in [3], in [4], in assay [5] and in assay [6] was > 100 µM (inactive) each time. Besides, the GI50 in [7], in assay [8], in assay [9], in assay [10], in assay [11] and in [12] was > 100 µM (inactive) in each case. In addition, the GI50 in assay [13], in [14], in [15], in [16], in [17] and in assay [18] was > 100 µM (inactive) each time. For the same molecule, in assay [19], the GI50 is > 100 µM (inactive).
Regarding `CCn1cc(C(c2ccc(Cl)cc2)n2ccnc2)c2cc(Br)ccc21` (centres undefined), the GI50 in assay [1] is 13.4 µM (inactive); in [2] it was 10.4 µM (inactive); in assay [3], 11.6 µM (inactive); in [4], 3.48 µM (inactive); in assay [5], 9.31 µM (inactive); in assay [6] it was 14.4 µM (inactive). The GI50 in assay [7] is 11.7 µM (inactive); in assay [8], 17 µM (inactive); in assay [9] it was 18.7 µM (inactive); in [11], 15.7 µM (inactive); in assay [13] it was 13.2 µM (inactive); in assay [14] it was 7.55 µM (inactive). In addition, the GI50 is 14.1 µM (inactive) in assay [15], 4.89 µM (inactive) in [16], 12.9 µM (inactive) in assay [18] and 10.3 µM (inactive) in [19].
On to `CC(=O)OCC1=C(COC(C)=O)C(=O)c2c(O)ccc(O)c2C1=O`, for which the GI50 is 18.4 µM (inactive) in assay [1]; 17.4 µM (inactive) in assay [2]; 2.38 µM (inactive) in assay [3]; 3.2 µM (inactive) in [4]; 16 µM (inactive) in assay [5]; 21 µM (inactive) in assay [6]. Also, the GI50 in assay [20] was 1.49 µM (inactive); in assay [7] it was 16.4 µM (inactive); in [8], 3.11 µM (inactive); in assay [9] it was 6.34 µM (inactive); in [10] it was 3.21 µM (inactive); in [11] it was 14.8 µM (inactive). In addition, the GI50 in assay [12] is 1.55 µM (inactive); in assay [13], 15.9 µM (inactive); in [14] it was 11.7 µM (inactive); in assay [15], 5.14 µM (inactive); in assay [16], 2.54 µM (inactive); in assay [17], 2.45 µM (inactive). In addition, in assay [19], the GI50 was 7.1 µM (inactive).
For `CO/N=C1/c2sccc2[C@H](NC(=O)CNC(=O)OC(C)(C)C)[C@@H]1O`, the GI50 in [1], in assay [2], in assay [3], in assay [5], in [6] and in assay [20] was > 100 µM (inactive) in each case. The GI50 in assay [7], in assay [8], in [9], in assay [10], in assay [11] and in assay [13] was > 100 µM (inactive) each time. Further, the GI50 in assay [14], in [15], in assay [16], in [17], in assay [18] and in assay [19] was > 100 µM (inactive) each time.
`C/C=C1\NC(=O)[C@H]2CSSCCC=C[C@H](CC(=O)N[C@H](C(C)C)C(=O)N2)OC(=O)[C@H](C(C)C)NC1=O`: the GI50 in [1] was 0.00015 µM (active); in [2], 0.000148 µM (active); in assay [4], 0.000147 µM (active); in [6] it was 9.79e-05 µM (active); in [9] it was 6.98e-05 µM (active); in assay [10] it was 0.000153 µM (active). For the same molecule, the GI50 in assay [11] is 6.65e-05 µM (active); in assay [13], < 0.01 µM (active); in [14] it was 0.000131 µM (active); in assay [16], 0.000366 µM (active); in [17], 0.000117 µM (active); in [19], 0.000412 µM (active).
